Values joined by “and” are separate entries in the source; they are usually repeats but may differ in a detail not shown here. Equal entries are not always repeated. Bridges are numbered along the chain shown (N, C = ends).
Key:
cerebellar neurons [1] = experiment: Neurite outgrowth assay, control media (basal outgrowth); assay type: cell-based, rat; conditions: for effect on basal neurite outgrowth: peptide 100 μg/ml, without MAG-Fc; for effect on neurite outgrowth in control media: without MAG-Fc (data not shown)
Protocol: (§1) Cerebellar neurons isolated from postnatal day ⅔ rat pups were cultured over monolayers of 3T3 cells (Doherty et al. (1991) Neuron 6(2):247-58) essentially as previously described (Williams et al. (1994) Neuron 13(3):583-94). Monolayers were established by seeding ˜80,000 cells into individual chambers of an eight-chamber tissue culture slide coated with poly-L-lysine and fibronectin. The cell lines, and monolayers, were maintained in Dulbecco's modified Eagle's medium supplemented with 10% fetal calf serum (FCS). Cocultures were established by removing the media from the monolayers and seeding ˜6000 dissociated cerebellar neurons into each well in SATO medium (modified from Doherty et al. (1990) Neuron 5(2):209-19; Dulbecco's modified Eagle's medium supplemented with 2% FBS, 33% bovine albumin, 0.62 μg/ml progesterone, 161 μg/ml putrescine, 4 μg/ml L-thyroxine, 0.387 μg/ml selenium, and 3.37 μg/ml tri-iodo-thyronine (components from Sigma-Aldrich, St. Louis, Mo.)). Monolayers were established for 24 hours prior to addition of the neurons and the cultures were maintained for ˜23-27 hr. Following careful fixation with 4% paraformaldehyde, the neurons were stained with a GAP-43 antibody, and the mean length of the longest neurite per cell was measured for ˜120-150 neurons, again as previously described (Williams et al. (1994) supra). For neurite outgrowth on substrate-bound MAG, 96-well plates were coated with a thin layer of nitrocellulose (Bio-Rad, Hercules, Calif.) before incubating with 1 μg/ml of MAG(d1-5) (a chimeric construct containing domains 1-5 of the extracellular portion of MAG) at 4° C. overnight. Wells were subsequently coated with 17 μg/ml of poly-D-lysine (Sigma, St. Louis, Mo.), followed by incubation in Dulbecco's modified Eagle's medium containing 10% FCS. Cerebellar granule neurons were dissociated and seeded at a density of 10^4 cells per well. Cells were cultured for 18-20 h before being fixed with 4% paraformaldehyde and stained with a neuronal-specific anti-III-tubulin antibody, Tuj 1 (Covance, Emeryville, Calif.). The average of total neurite lengths from each neuron was measured automatically by the MetaXpress Neurite Outgrowth module (Molecular Devices, Sunnyvale, Calif.) from at least 200 neurons per well, in triplicate wells per experiment. Results were repeated independently more than three times.
(§2) Synthetic peptides were all obtained from a commercial supplier (Multiple Peptide Systems, San Diego, Calif.). All peptides were purified to the highest grade by reverse-phase HPLC and obtained at the highest level of purity (>97%). With all peptides, there was no indication of higher molecular weight species. Where peptide sequences are underlined, this denotes a peptide that has been cyclized via a disulfide bond between the given cysteine residues. All peptides were acetylated (e.g., denoted with “N-Ac-”) and amide blocked (e.g., denoted with “—NH2”). Recombinant MAG-Fc chimera was obtained from R&D Systems (Minneapolis, Minn.) and used at final concentrations ranging from 5-25 μg/ml. The monoclonal antibody to GT1b (clone GMR5) was obtained from Seikagaku America (Falmouth, Mass.) and was used at a final concentration of 20 μg/ml. All reagents were diluted into the coculture media and, in general, added to the cultures just prior to the plating of the neurons. GT1b and GM1 were obtained as gifts from Dr. Gino Toffano (Libero, Italy) and University of Milan, and asialo-GM1 was obtained from Sigma (St. Louis, Mo.). The recombinant NgR1(310)-fc and MAG(d1-5) chimeras were expressed and purified in-house. Pharmacological reagents were obtained from Calbiochem (La Jolla, Calif.) and/or Sigma. For reagents used in cell-surface NgR binding assays, please see Examples 1.5 and 1.7. For reagents used in the cell surface p75NTR-NgR-AP binding assay, please see Example 1.13.
(§3) In contrast, a soluble MAG-Fc chimera inhibits neurite outgrowth in a manner that depends upon both ganglioside and NgR function. […]

cerebellar neurons [2] = experiment: Neurite outgrowth assay, inhibition by soluble MAG-Fc; assay type: cell-based, rat; conditions: for effect on MAG-Fc-suppressed neurite outgrowth / antagonism of MAG-mediated inhibition of axonal growth: peptide 100 μg/ml; for effect on MAG-Fc-suppressed neurite outgrowth: MAG-Fc 25 μg/ml (FIG. 5A); for peptide concentration with maximal effects on neurite outgrowth / peptide concentration with significant effects on neurite outgrowth: MAG-Fc 20 μg/ml (FIG. 6A); for antagonism of inhibitory activity of MAG-Fc: peptide 50 μg/ml (60 μM); for antagonism of inhibitory activity of MAG-Fc / efficacy of peptide relative to NRL2b over a range of concentrations: MAG-Fc 20 μg/ml; for efficacy of peptide relative to NRL2b over a range of concentrations: FIG. 6C, 6D, position 2 effect at 25-50 μg/ml; for antagonism of MAG-mediated inhibition of axonal growth: MAG-Fc 20 μg/ml (FIG. 6B)
Protocol: as §1, §2, §3

Row | Substance | effect on basal neurite outgrowth (cerebellar neurons [1]) | effect on MAG-Fc-suppressed neurite outgrowth (cerebellar neurons [2]) | antagonism of MAG-mediated inhibition of axonal growth (cerebellar neurons [2]) | also measured
1 | N-Ac-CAGRDLKRC-NH2 (disulfide 1-9 (inferred)) [NRL4] | no effect | no effect |  | 
2 | N-Ac-CKFRGSC-NH2 (disulfide 1-7 (inferred)) [NRL2a] |  |  |  | effect on neurite outgrowth in control media (cerebellar neurons [1]): no effect; peptide concentration with maximal effects on neurite outgrowth (cerebellar neurons [2]): 50 μg/ml and 60 μM; peptide concentration with significant effects on neurite outgrowth (cerebellar neurons [2]): 25 μg/ml and 30 μM; antagonism of inhibitory activity of MAG-Fc (cerebellar neurons [2]): effectively antagonized
3 | N-Ac-CQAFRGC-NH2 (disulfide 1-7 (inferred)) |  |  | as effective as NRL2b | efficacy of peptide relative to NRL2b over a range of concentrations (cerebellar neurons [2]): no obvious effect on the efficacy of the peptide
4 | N-Ac-CQKARGC-NH2 (disulfide 1-7 (inferred)) |  |  | as effective as NRL2b | efficacy of peptide relative to NRL2b over a range of concentrations (cerebellar neurons [2]): reduced efficacy by about two-fold
5 | N-Ac-CQKFAGC-NH2 (disulfide 1-7 (inferred)) |  |  | ineffective | 
6 | N-Ac-CQKFRAC-NH2 (disulfide 1-7 (inferred)) |  |  | ineffective | 
7 | N-Ac-CQKFRGC-NH2 (disulfide 1-7 (inferred)) [NRL2b] |  |  |  | effect on neurite outgrowth in control media (cerebellar neurons [1]): no effect; peptide concentration with maximal effects on neurite outgrowth (cerebellar neurons [2]): 50 μg/ml and 60 μM; peptide concentration with significant effects on neurite outgrowth (cerebellar neurons [2]): 25 μg/ml and 30 μM; antagonism of inhibitory activity of MAG-Fc (cerebellar neurons [2]): effectively antagonized
8 | N-Ac-CSLPQRLAC-NH2 (disulfide 1-9 (inferred)) [NRL3] | no effect | no effect |  | 
9 | N-Ac-CYNEPKVTC-NH2 (disulfide 1-9 (inferred)) [NRL1] | no effect | no effect |  | 
10 | QKFRG (listed as Homo sapiens) |  |  | did not antagonize | 

Reference: patent US20080027001A1, “NOGO RECEPTOR FUNCTIONAL MOTIFS, PEPTIDE MIMETICS, AND MUTATED FUNCTIONAL MOTIFS RELATED THERETO, AND METHODS OF USING THE SAME” (priority 2006, published 2008)
